{
  "source": "patent US5616615A",
  "about": "“Enaminone esters” (priority 1995, dated 1997)",
  "key": {"[1]": {"tested_on": "bicuculline", "assay": "Phase V quantification against bicuculline", "assay_type": "in vivo", "conditions": "12.5, 25, 50 and 100 mg/kg", "method": "(§1) Both 12 and 27 were evaluated in Phase V of the ADD Program evaluation scheme. Phase V provides quantification against bicuculline, picrotoxin, pentylenetetrazol, and strychnine. This screen provides information on the mechanism of action of the anticonvulsant activity. Bicuculline, picrotoxin, and strychnine correspond to GABA inhibitory function, chloride channel inhibition and inhibition by glycine respectively."}, "[2]": {"tested_on": "strychnine", "assay": "Phase V quantification against strychnine", "assay_type": "in vivo", "conditions": "12.5, 25, 50 and 100 mg/kg", "method": "as §1"}, "[3]": {"tested_on": "pentylenetetrazol", "assay": "Phase V quantification against pentylenetetrazol", "assay_type": "in vivo", "conditions": "12.5, 25, 50 and 100 mg/kg", "method": "as §1"}, "[4]": {"assay": "Neurotoxicity, rats ip", "conditions": "100 mg/kg", "protocol": "The rotorod test is used to elevate neurotoxicity. The animal is placed on a 1 inch diameter knurled plastic rod rotating at 6 rpm. […] Neurologic toxicity is defined as the failure of the animal to remain on the rod for 1 minute and the results are expressed as the number of animals protected/the number of animals tested.\nThe toxicity evaluation for the commercial agents as previously indicated was based on the onset of ataxia."}, "[5]": {"assay": "in vivo", "conditions": "rat, po", "description": "(§2) This oral screen is designated as phase VI."}, "[6]": {"tested_on": "Maximal electroshock seizures", "assay": "Phase VI oral MES test, rats", "assay_type": "in vivo", "conditions": "oral; for responders at 50 mg/kg: Rattus norvegicus, read-out: MES, animals protected/tested (converted)", "description": "(§3) Maximal electroshock seizures are elicited with a 60-cycle alternating current of 50 mA intensity (5-7 times that necessary to elicit minimal electroshock seizures) delivered via corneal electrodes for 0.2 seconds. A drop of 0.9% saline is instilled in the eye prior to application of the electrodes in order to […].\nas §2"}, "[7]": {"tested_on": "seizures", "assay": "Anticonvulsant evaluation (ASP phase I / overall)", "assay_type": "in vivo, mice", "how_it_was_run": "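Male Carworth Farms #1 mice; maximal electroshock seizures elicited by 60-cycle AC, 50 mA, 0.2 s via corneal electrodes after a drop of 0.9% saline in the eye. Animals observed for 30 minutes.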"}, "[8]": {"tested_on": "Corneal Kindled rats", "assay": "Corneal kindling", "assay_type": "in vivo", "method": "Corneal kindling studies were performed in our laboratories on 12 and 27 and the results are shown in Tables XI and XII and FIGS. 1A and 1B. Comparative data for the commercial products are included. Seizures evoked in electroshock-kindled rats provide a suitable model consistent with complex partial seizures evolving into generalized motor seizures in humans.\n^a Rats kindled to Stage 5. Endpoint was reduction from Stage 5 to […]"}, "[9]": {"tested_on": "electroshock seizures", "assay": "MES maximal electroshock test, rats ip", "assay_type": "in vivo", "conditions": "100 mg/kg", "description": "as §3"}, "[10]": {"tested_on": "Maximal electroshock seizures", "assay": "MES maximal electroshock seizure test, mice ip", "assay_type": "in vivo", "parameters": "TPE (time of peak effect), activity: unit not given here", "conditions": "ip; for responders at 10 mg/kg: read-out: MES, animals protected/tested (converted); for responders at 300 mg/kg: read-out: MES, animals protected/tested", "method": "Three tests were performed:\n1. MES--Electroshock Seizure Test\nas §3"}, "[11]": {"tested_on": "picrotoxin", "assay": "Phase V quantification against picrotoxin", "assay_type": "in vivo", "conditions": "12.5, 25, 50 and 100 mg/kg", "method": "as §1"}, "[12]": {"tested_on": "Subcutaneous Pentylenetetrazol seizure", "assay": "sc Met subcutaneous pentylenetetrazol (Metrazol) seizure test, mice", "assay_type": "in vivo", "conditions": "Mus musculus, sc; for responders at 10 mg/kg: read-out: scMet, animals protected/tested; for responders at 300 mg/kg: read-out: scMet, animals protected/tested (converted)"}, "[13]": {"assay": "in vivo", "conditions": "mouse, in vivo, ip", "method": "The first phase of the ADD Program involved performing tests on male Carworth Farms #1 mice. […] Three tests were performed:\nIn the second phase of the ADD program protocol, estimates of anticonvulsant activity and neurotoxicity are quantified. The median effective dose (ED50) in the MES, sc Met, and rotorod test is determined. In the case of a compound with apparent activity in only one anticonvulsant test, testing is carried out in the other up to, and in some cases beyond, doses which produce neurological deficit. Compounds which fail to produce minimal neurological deficit are tested whenever possible to doses ten times their lowest anticonvulsant ED50. […] The rotorod ED50 is determined at the time of the peak neurologic deficit."}, "[14]": {"tested_on": "Amygdala Kindled Seizures", "assay": "Suppression of amygdala kindled seizures", "assay_type": "in vivo", "method": "Compounds 12 and 27 were evaluated in our laboratory for suppression of amygdala kindled seizures."}},
  "note": "Read-outs that look alike come from different tables or passages of the source.",
  "data": [
    {"smiles": "COC(=O)C1C(=O)C=C(NCc2ccccc2)CC1C", "note": "(stereo not shown) [Compound 12, Methyl 4-(benzyl)amino-6-methyl-2-oxocyclohex-3-en-1-oate]", "values": [
      {"measurement": "protection against bicuculline", "setting": "[1]", "value": "uniformly inactive"},
      {"measurement": "protection against strychnine", "setting": "[2]", "value": "uniformly inactive"},
      {"measurement": "protection against pentylenetetrazol", "setting": "[3]", "value": "uniformly inactive"},
      {"measurement": "Tox, animals toxic/tested", "setting": "[4]; 0.25 h (Table X)", "value": "0/4"},
      {"measurement": "Tox, animals toxic/tested", "setting": "[4]; 0.50 h (Table X)", "value": "0/4"},
      {"measurement": "Tox, animals toxic/tested", "setting": "[4]; 1.00 h (Table X)", "value": "0/4"},
      {"measurement": "Tox, animals toxic/tested", "setting": "[4]; 2.00 h (Table X)", "value": "0/4"},
      {"measurement": "Tox, animals toxic/tested", "setting": "[4]; 4.00 h (Table X)", "value": "0/4"},
      {"measurement": "toxicity", "setting": "[4]; ip, four hour evaluation", "value": "No toxicity was noted"},
      {"measurement": "TD50", "setting": "[5]", "value": "> 500", "unit": "mg/kg"},
      {"measurement": "selectivity ratio", "setting": "[5]", "value": 18.7},
      {"measurement": "Tox, animals toxic/tested", "setting": "[5]; 50 mg/kg", "value": "0/4"},
      {"measurement": "ED50", "setting": "[6]; Phase VI, rat", "value": 26.8, "unit": "mg/kg"},
      {"measurement": "responders at 50 mg/kg", "setting": "[6]; 0.5 h, 0.50 h", "value": 100, "unit": "%"},
      {"measurement": "responders at 50 mg/kg", "setting": "[6]; 0.25 h", "value": 50, "unit": "%"},
      {"measurement": "responders at 50 mg/kg", "setting": "[6]; 1.00 h", "value": 75, "unit": "%"},
      {"measurement": "responders at 50 mg/kg", "setting": "[6]; 2.00 h", "value": 50, "unit": "%"},
      {"measurement": "responders at 50 mg/kg", "setting": "[6]; 4.00 h", "value": 50, "unit": "%"},
      {"measurement": "minimal effective dose", "setting": "[7]; Mus musculus, ip, Phase I, read-out: ASP Classification", "value": "< 100", "unit": "mg/kg"},
      {"measurement": "anticonvulsant activity", "setting": "[7]; mouse, in vivo", "value": "highly active"},
      {"measurement": "% Reduction", "setting": "[8]; 50 mg/kg", "value": 17, "unit": "%"},
      {"measurement": "% Reduction", "setting": "[8]; 60 mg/kg", "value": 23, "unit": "%"},
      {"measurement": "% Reduction", "setting": "[8]; 75 mg/kg", "value": 75, "unit": "%"},
      {"measurement": "ED50", "setting": "[8]; Rattus norvegicus, po, 0.5 h, read-out: ED50 (reduction from Stage 5 to Stage 4)", "value": 41.9, "unit": "mg/kg"},
      {"measurement": "MES, animals protected/tested", "setting": "[9]; 0.25 h (Table X)", "value": "4/4"},
      {"measurement": "MES, animals protected/tested", "setting": "[9]; 0.50 h (Table X)", "value": "4/4"},
      {"measurement": "MES, animals protected/tested", "setting": "[9]; 1.00 h (Table X)", "value": "4/4"},
      {"measurement": "MES, animals protected/tested", "setting": "[9]; 2.00 h (Table X)", "value": "4/4"},
      {"measurement": "MES, animals protected/tested", "setting": "[9]; 4.00 h (Table X)", "value": "3/4"},
      {"measurement": "responders at 10 mg/kg", "setting": "[10]; Mus musculus, 0.5 h, 30 min", "value": 66.7, "unit": "%"},
      {"measurement": "responders at 300 mg/kg", "setting": "[10]; Mus musculus, 0.5 h, 30 min", "value": 100, "unit": "%"},
      {"measurement": "responders at 10 mg/kg", "setting": "[10]; Mus musculus, 4 h, 4 h", "value": 0, "unit": "%"},
      {"measurement": "responders at 300 mg/kg", "setting": "[10]; Mus musculus, 4 h, 4 h", "value": 0, "unit": "%"},
      {"measurement": "ED50", "setting": "[10]; Mus musculus, Phase II, time of peak effect", "value": 64.7, "unit": "mg/kg"},
      {"measurement": "TPE (time of peak effect), activity", "setting": "[10]; Phase II", "value": 0.5},
      {"measurement": "protection against picrotoxin", "setting": "[11]", "value": "uniformly inactive"},
      {"measurement": "responders at 10 mg/kg", "setting": "[12]; 0.5 h, 30 min", "value": 10, "unit": "%"},
      {"measurement": "responders at 300 mg/kg", "setting": "[12]; 0.5 h, 30 min", "value": 0, "unit": "%"},
      {"measurement": "responders at 10 mg/kg", "setting": "[12]; 4 h, 4 h", "value": 10, "unit": "%"},
      {"measurement": "responders at 300 mg/kg", "setting": "[12]; 4 h, 4 h", "value": 0, "unit": "%"},
      {"measurement": "TD50", "setting": "[13]", "value": "> 500", "unit": "mg/kg"},
      {"measurement": "TPE (time of peak effect), toxicity", "setting": "[13]", "value": 1},
      {"measurement": "selectivity ratio", "setting": "[13]", "value": 7.73},
      {"measurement": "Afterdischarge Amygdala: Duration", "setting": "[14]; 500 mg/kg", "value": 73.9, "unit": "s"},
      {"measurement": "Afterdischarge Cortex: Duration", "setting": "[14]; 500 mg/kg", "value": 78.9, "unit": "s"},
      {"measurement": "Afterdischarge Cortex: Latency", "setting": "[14]; 500 mg/kg", "value": 2.8, "unit": "s"},
      {"measurement": "Behavioral Seizure: Duration", "setting": "[14]; 500 mg/kg", "value": 79.5, "unit": "s"},
      {"measurement": "Behavioral Seizure: Latency", "setting": "[14]; 500 mg/kg", "value": 2.1, "unit": "s"},
      {"measurement": "Forelimb Clonus: Duration", "setting": "[14]; 500 mg/kg", "value": 44.2, "unit": "s"},
      {"measurement": "Forelimb Clonus: Latency", "setting": "[14]; 500 mg/kg", "value": 9.3, "unit": "s"},
      {"measurement": "Seizure Stage", "setting": "[14]; 500 mg/kg", "value": 5.0},
      {"measurement": "suppression of amygdala kindled seizures", "setting": "[14]; in vivo", "value": "no significant activity"}
    ]}
  ]
}
